The target of the experiment is T1, NNMT (Homo sapiens, UniProt P40261).
T1 sequence (P40261 1-264): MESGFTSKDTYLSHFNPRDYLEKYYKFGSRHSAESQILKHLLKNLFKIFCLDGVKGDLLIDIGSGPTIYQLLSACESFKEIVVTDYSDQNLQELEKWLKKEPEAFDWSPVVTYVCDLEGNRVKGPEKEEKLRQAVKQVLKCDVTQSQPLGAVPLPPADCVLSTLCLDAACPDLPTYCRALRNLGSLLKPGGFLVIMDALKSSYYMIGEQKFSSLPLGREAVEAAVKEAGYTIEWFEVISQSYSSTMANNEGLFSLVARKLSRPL
Kind of experiment: NNMT assay (HILIC-MS/MS, formation of MNA). The note with it: NA 200 μM, SAM 8.5 μM.

Setting [1] is: IC50 values (nM), Table 9, compounds CM035 and CM037.
[2] abbreviates: IC50 values (μM), Table 9, compounds CM035 and CM037.
Setting [3] is: read-out: IC50 values, Table 1, alkene linked aromatics, maximum concentration tested 25 μM.
Setting [4] is: IC50 values (nM), Table 3, 1-carbon alkyl linkers, maximum concentration tested 25 μM.
The mark [5] stands for this setting: IC50 values (μM), Table 3, 1-carbon alkyl linkers, maximum concentration tested 25 μM.
The mark [6] stands for this setting: IC50 values (nM), Table 6, amino acid replacement, maximum concentration tested 25 μM.
Setting [7] is: IC50 values (μM), Table 6, amino acid replacement, maximum concentration tested 25 μM.

Here are results for 36 molecules from patent US20240247024A1, “INHIBITORS OF NICOTINAMIDE N-METHYL TRANSFERASE (NNMT)” (UNIVERSITEIT LEIDEN, priority 2021, published 2024).

Each structure is given as a SMILES string. “And” between values parts separate entries of the source, which are not always exact repeats. Equal entries are not always repeated. Where two headings read alike, the source gives them in different places. A value given as a limit tells only on which side of the number the result lay.

Usually IC50 stands for the concentration at which inhibition is half-maximal.

For the molecule `CC(=O)N(C/C=C/c1ccc(C#N)cc1)C[C@H]1C[C@@H](n2ccc3c(Cl)ncnc32)[C@H](O)[C@@H]1O` [CM035], the IC50 runs as follows: under setting [1], 3580 nM; under setting [2], 3580 nM.

Regarding `CC(=O)N(C/C=C/c1ccc(C#N)cc1)C[C@H]1C[C@@H](n2ccc3c(N)ncnc32)[C@H](O)[C@@H]1O` [CM037], the IC50 was found to be 264 nM under setting [1] and 260 nM under setting [2].

For `Nc1ncnc2c1ncn2[C@@H]1O[C@H](CN(C/C=C/c2ccccc2C(F)(F)F)CC[C@H](N)C(=O)O)[C@@H](O)[C@H]1O` [GYZ-326], the 50% inhibitory concentration (IC50) under setting [3] is 2850 nM.

As for `Nc1ncnc2c1ncn2[C@@H]1O[C@H](CN(C/C=C/c2c(Cl)cccc2Cl)CC[C@H](N)C(=O)O)[C@@H](O)[C@H]1O` [GYZ-336], under setting [3], the IC50 was more than 25000 nM.

Turning to `Nc1ncnc2c1ncn2[C@@H]1O[C@H](CN(C/C=C/c2cccc(C(F)(F)F)c2)CC[C@H](N)C(=O)O)[C@@H](O)[C@H]1O` [GYZ-349], the concentration for half-maximal inhibition (IC50) under setting [3] was 164 nM.

Turning to `Nc1ncnc2c1ncn2[C@@H]1O[C@H](CN(C/C=C/c2ccc(C(F)(F)F)cc2)CC[C@H](N)C(=O)O)[C@@H](O)[C@H]1O` [GYZ-350], the IC50 under setting [3] was determined as 1390 nM.

`Nc1ncnc2c1ncn2[C@@H]1O[C@H](CN(CC[C@H](N)C(=O)O)Cc2ccc(C(F)(F)F)cc2)[C@@H](O)[C@H]1O` [GYZ-414]: the IC50 reads like this: under setting [4], 6790 nM; under setting [5], 6790 nM.

The molecule `Nc1ncnc2c1ncn2[C@@H]1O[C@H](CN(CC[C@H](N)C(=O)O)Cc2ccccc2C(F)(F)F)[C@@H](O)[C@H]1O` [GYZ-415] gave an IC50 under setting [4] of 9700 nM and an IC50 under setting [5] of 9700 nM.

For `Nc1ncnc2c1ncn2[C@@H]1O[C@H](CN(CC[C@H](N)C(=O)O)Cc2cccc(C(F)(F)F)c2)[C@@H](O)[C@H]1O` [GYZ-416], the IC50 reads like this: under setting [4], 6580 nM; under setting [5], 6580 nM.

On to `Nc1ncnc2c1ncn2[C@@H]1O[C@H](CN(CC[C@H](N)C(=O)O)Cc2ccc(F)c([N+](=O)[O-])c2)[C@@H](O)[C@H]1O` [GYZ-417], for which the IC50 (read-out: IC50 values, Table 3, 1-carbon alkyl linkers, maximum concentration tested 25 μM) was 410 nM and 407 nM.

For `Nc1ncnc2c1ncn2[C@@H]1O[C@H](CN(CC[C@H](N)C(=O)O)Cc2cccc([N+](=O)[O-])c2)[C@@H](O)[C@H]1O` [GYZ-419], the IC50 reads like this: under setting [4], 320 nM; under setting [5], 320 nM.

`Nc1ncnc2c1ncn2[C@@H]1O[C@H](CN(CC[C@H](N)C(=O)O)Cc2ccc([N+](=O)[O-])cc2)[C@@H](O)[C@H]1O` [GYZ-420] returned an IC50 under setting [4] of 6610 nM and an IC50 under setting [5] of 6610 nM.

For the molecule `Nc1ncnc2c1ncn2[C@@H]1O[C@H](CN(CC[C@H](N)C(=O)O)Cc2ccccc2F)[C@@H](O)[C@H]1O` [GYZ-421], the IC50 is more than 25000 nM under setting [4] and more than 25000 nM under setting [5].

Consider `Nc1ncnc2c1ncn2[C@@H]1O[C@H](CN(CC[C@H](N)C(=O)O)Cc2cccc(F)c2)[C@@H](O)[C@H]1O` [GYZ-422], for which the IC50 was found to be 1240 nM under setting [4] and 1240 nM under setting [5].

On to `Nc1ncnc2c1ncn2[C@@H]1O[C@H](CN(CC[C@H](N)C(=O)O)Cc2ccc(F)cc2)[C@@H](O)[C@H]1O` [GYZ-423], for which the IC50 reads like this: under setting [4], more than 25000 nM; under setting [5], more than 25000 nM.

Regarding `Nc1ncnc2c1ncn2[C@@H]1O[C@H](CN(CC[C@H](N)C(=O)O)Cc2ccccc2[N+](=O)[O-])[C@@H](O)[C@H]1O` [GYZ-425], the IC50 was more than 25000 nM under setting [4] and more than 25000 nM under setting [5].

Take `Nc1ncnc2c1ncn2[C@@H]1O[C@H](CN(CCCc2ccc([N+](=O)[O-])cc2)CC[C@H](N)C(=O)O)[C@@H](O)[C@H]1O` [GYZ-447]: the IC50 stood at 294 nM (IC50 values (nM), Table 5, 3-carbon alkyl linkers) and 290 nM (IC50 values (μM), Table 5, 3-carbon alkyl linkers).

As to `N#Cc1ccc(/C=C/CN(C/C=C/c2ccc(C#N)cc2)C[C@H]2O[C@@H](n3cnc4c(N)ncnc43)[C@H](O)[C@@H]2O)cc1` [GYZ-466], the IC50 reads like this: under setting [6], more than 25000 nM; under setting [7], more than 25000 nM.

In turn, `N#Cc1ccc(/C=C/CN(CCC[C@H](N)C(=O)O)C[C@H]2O[C@@H](n3cnc4c(N)ncnc43)[C@H](O)[C@@H]2O)cc1` [GYZ-485] gave a half-inhibitory concentration (IC50) under setting [6] of 356 nM.

For `Nc1ncnc2c1ncn2[C@@H]1O[C@H](CN(C/C=C/c2ccc(C(=O)O)cc2)CC[C@H](N)C(=O)O)[C@@H](O)[C@H]1O` [GYZ-564], the IC50 under setting [3] was more than 25000 nM.

`C=CC(=O)NCCN(C/C=C/c1ccc(C#N)cc1)C[C@H]1O[C@@H](n2cnc3c(N)ncnc32)[C@H](O)[C@@H]1O` [GYZ-604]: the half-maximal inhibitory concentration (IC50) runs as follows: under setting [6], 21000 nM; under setting [7], 21000 nM.

As for `N#Cc1ccc(/C=C/CN(CCCNC(=O)CCl)C[C@H]2O[C@@H](n3cnc4c(N)ncnc43)[C@H](O)[C@@H]2O)cc1` [GYZ-608], the IC50 was determined as 11900 nM under setting [6] and 11900 nM under setting [7].

In the case of `N#Cc1ccc(/C=C/CN(CC[C@H](N)C(=O)O)C[C@H]2O[C@@H](n3cnc4c(N)ncnc43)[C@H](O)[C@@H]2O)cc1F` [GYZ-658], the IC50 under setting [3] was less than 5 nM.

Molecule `C=CC(=O)N1CC(CN(C/C=C/c2ccc(C#N)cc2)C[C@H]2O[C@@H](n3cnc4c(N)ncnc43)[C@H](O)[C@@H]2O)C1` [GYZ-665] came in with an IC50 under setting [6] of 4160 nM and a concentration for half-maximal inhibition (IC50) under setting [7] of 4160 nM.

As to `N#Cc1c(F)cc(/C=C/CN(CC[C@H](N)C(=O)O)C[C@H]2O[C@@H](n3cnc4c(N)ncnc43)[C@H](O)[C@@H]2O)cc1F` [GYZ-670], the IC50 under setting [3] is 2 nM and 1.99 nM.

Regarding `N#Cc1ccc(/C=C/CN(CC[C@H](N)C(=O)O)C[C@H]2O[C@@H](n3cnc4c(N)ncnc43)[C@H](O)[C@@H]2O)c(F)c1` [GYZ-674], under setting [3], the IC50 was 5 nM and 5.33 nM.

Regarding `N#Cc1ccc(/C=C/CN(CCNC(=O)C(F)(F)F)C[C@H]2O[C@@H](n3cnc4c(N)ncnc43)[C@H](O)[C@@H]2O)cc1` [GYZ-693], the IC50 is, setting by setting: under setting [6], 7770 nM; under setting [7], 7770 nM.

`COC(=O)/C=C/C(=O)NCCN(C/C=C/c1ccc(C#N)cc1)C[C@H]1O[C@@H](n2cnc3c(N)ncnc32)[C@H](O)[C@@H]1O` [GYZ-694]: the IC50 was more than 25000 nM under setting [6] and more than 25000 nM under setting [7].

For `N#CCC(=O)NCCN(C/C=C/c1ccc(C#N)cc1)C[C@H]1O[C@@H](n2cnc3c(N)ncnc32)[C@H](O)[C@@H]1O` [GYZ-695], the IC50 is, setting by setting: under setting [6], 931 nM; under setting [7], 931 nM.

Regarding `N#Cc1ccc(/C=C/CN(CCNC(=O)C(F)(F)Cl)C[C@H]2O[C@@H](n3cnc4c(N)ncnc43)[C@H](O)[C@@H]2O)cc1` [GYZ-701], the IC50 is, setting by setting: under setting [6], more than 25000 nM; under setting [7], more than 25000 nM.

In the case of `N#Cc1ccc(/C=C/CN(CC(=O)CCl)C[C@H]2O[C@@H](n3cnc4c(N)ncnc43)[C@H](O)[C@@H]2O)cc1` [GYZ-702], the IC50 is, setting by setting: under setting [6], 980 nM; under setting [7], 980 nM.

`C=CC(=O)CCCN(C/C=C/c1ccc(C#N)cc1)C[C@H]1O[C@@H](n2cnc3c(N)ncnc32)[C@H](O)[C@@H]1O` [GYZ-704]: the IC50 (read-out: IC50 values, Table 6, amino acid replacement, maximum concentration tested 25 μM) worked out at 538 nM.

For the molecule `N#Cc1ccc(/C=C/CN(CCNC(=O)C(F)(F)Br)C[C@H]2O[C@@H](n3cnc4c(N)ncnc43)[C@H](O)[C@@H]2O)cc1` [GYZ-706], the IC50 by setting is: under setting [6], more than 25000 nM; under setting [7], more than 25000 nM.

Take `CCCCCN(C/C=C/c1ccc(C#N)cc1)C[C@H]1O[C@@H](n2cnc3c(N)ncnc32)[C@H](O)[C@@H]1O` [GYZ-718]: the half-inhibitory concentration (IC50) was more than 25000 nM under setting [6] and more than 25000 nM under setting [7].

As to `Nc1ncnc2c1ncn2[C@@H]1O[C@H](CN(C/C=C/c2ccc(B(O)O)cc2)CC[C@H](N)C(=O)O)[C@@H](O)[C@H]1O` [GYZ-732], the IC50 under setting [3] was more than 25000 nM.

Turning to `Nc1ncnc2c1ncn2[C@@H]1O[C@H](CN(C/C=C/c2ccc(S(=O)(=O)F)cc2)CC[C@H](N)C(=O)O)[C@@H](O)[C@H]1O` [GYZ-736], the IC50 under setting [3] is 68 nM and 67.9 nM.
